Where “and” joins values, the source holds several entries; their conditions need not be identical. Equal entries are not always repeated.
Assays:
striatal 5-HT release = conditions: rat, in vivo; cited from earlier work
clinical = conditions: human, in vivo
Method: Blood was collected for NLX-112 plasma concentration measurements on Days 14, 21, 28, 42 and 70 (Visits 4, 5, 6, 7 and 9).
The concentration of NLX-112 was determined in 120 human plasma samples collected from the clinical study. The bioanalysis was performed in the calibration range of 1.0 ng/ml to 1620 ng/ml using a 35 μL sample volume.
The Qualification Runs 1 and 2 contained two calibration curves, six sets of QC samples at eight levels (QC1 to QC8), as well as UPLC and Tecan Carry-over test samples. The analytical run 1 contained two calibration curves, four sets of QC samples at three levels (QC L, M and H), as well as […] and Tecan Carry-over test samples. The qualification and analysis was performed in an exploratory setting.
The analytical instrumentation consisted of an Acquity UPLC system coupled to a Xevo-TQS micro tandem quadrupole mass spectrometer (Waters Corp., Milford, MA, USA). […]
A combined calibration curve was constructed from the two sets of calibration samples for each run. […] The lower limit of quantification (LLOQ) for the method was 1.0 ng/mL and the upper limit of quantification (ULOQ) was 1620 ng/mL of NLX-112 in human plasma.
The mean NLX-112 blood plasma concentration measured in treated patients on study days 14 (Visit 4), […] (Visit 5), 28 (Visit 6), 42 (Visit 7), and 70 (Visit 9) is shown in Table 5. […]

[1] = system: Parkinson's disease symptoms in PD patients with LID; assay: Unified Parkinson's Disease Rating Scale (UPDRS); conditions: for UPDRS Part 3 score (motor disability), change from baseline: p=0.0072 vs baseline
Method: Patients were rated for dyskinesia at baseline and on days 28 (at end of up-titration period) and 42 (end of stable dosing period). Because the level of dyskinesia experienced by patients can vary over time, they were given 150% (i.e., 1.5×) of their regular L-DOPA dose (up to a maximum of 250 mg) as a challenge 30 min before each dyskinesia assessment to improve comparability between patients and between visits. Patients were filmed 30, 60 and 90 min after dosing with L-DOPA (˜5 min of filming each time). LID was assessed using the Unified Dyskinesia Rating Scale (UDysRS). Changes from baseline are shown for total score (i.e., Parts 1 to 4), for total objective score (i.e., Parts 3+4), and for the sum of Part 3 objective impairment assessment scores. Because objective LID assessment was carried out at 3 time-points (30, 60 and 90 min) following L-DOPA challenge, the above parameters were analyzed based on the most severe of the three scores as well as on the average score of the 3 time points. PD symptoms were assessed by Unified Parkinson's Disease Rating Scale (UPDRS) 30-90 min after the 150% L-DOPA challenge (i.e., when the patient was ON). Changes from baseline are shown for total score (i.e., Parts 1 to 4) and individual scores for each Part, 1, 2, 3 and 4.
The UPDRS consists of 4 parts: • v. Part I assesses non-motor experiences of daily living, such as cognitive impairment and depressed mood. • w. Part II assesses motor experiences of daily living, such as speech and eating tasks. • x. Part III is a motor examination conducted by the clinician, including assessments of symptoms such as rigidity and tremor. • y. Part IV is an assessment of motor complications, such as time spent with dyskinesia and functional impact of dyskinesias.
Each item in the UPDRS is scored from 0 to 4, and the individual scores are summed to give a total score that indicates the severity of the disease, with a score of 0 indicating no disability and a score of 199 being the most severe (indicating total disability).
Change from baseline in UPDRS combined scores (Parts I, II, III and IV) to Visit 6 (Day 28) and Visit 7 (Day 42) respectively would be summarized using descriptive statistics. […] The same analysis would be done for UPDRS Part III only.
The baseline value of the dependent variable has been included in the model as a continuous covariate. Kenward-Roger's improved approximation for degrees of freedom (2009) has been used; ^b)=p-value for the difference between NLX-112 at the assessment timepoint and at baseline; ^c)=p-value for the difference between placebo at the assessment timepoint and at baseline; ^d)=p-value for the difference between NLX-112 and placebo absolute change from baseline at the assessment timepoint.

6-OH-DA lesioned rats = conditions: rat, in vivo; cited from earlier work
[2] = 5 patients co-treated with amantadine
[3] = Full analysis set, Visit 2 Baseline
[4] = Full analysis set, Visit 6 Clinic Efficacy Visit
[5] = Full analysis set, Visit 7 Clinic Efficacy Visit
[6] = Full analysis set, Visit 9 Follow-up Clinic Visit
[7] = Visit 2 Baseline, per protocol analysis set, N = 15
[8] = Visit 6 Clinic Efficacy Visit (Day 28), per protocol analysis set, N = 15
[9] = Visit 7 Clinic Efficacy Visit (Day 42), per protocol analysis set, N = 15
[10] = Visit 9 Follow-up Clinic Visit, per protocol analysis set, N = 15
[11] = individual patients A-E co-treated with amantadine
[12] = per-protocol set (n = 15), Baseline
[13] = per-protocol set, Δ D 28 (end of up-titration), p < 0.05 vs baseline
[14] = per-protocol set, Δ D 42 (end of stable dosing)
[15] = per-protocol set, Δ D 42 (end of stable dosing), p < 0.01 vs baseline

Cc1ccc(CNCC2(F)CCN(C(=O)c3ccc(F)c(Cl)c3)CC2)nc1 [NLX-112, (3-chloro-4-fluoro-phenyl)-[4-fluoro-4-{[(5-methyl-pyridin-2-ylmethyl)-amino]-methyl}piperidin-1-yl]methanone]
striatal 5-HT release and dopamine surge following L-DOPA (striatal 5-HT release): inhibited striatal 5-HT release and blunted the ‘dopamine surge’
concentration at 14 day (clinical): 32.3 ng/mL
concentration at 25 day (clinical): 38.7 ng/mL
UPDRS Part 3, mean change from baseline [1, 2]: −4.2
UPDRS Total, mean change from baseline [1, 2]: −6.6
UPDRS Part 2 (motor experiences of daily living), vs baseline ([1]; Day 28): statistically significant reduction
UPDRS total score (Parts 1-4), change from baseline ([1]; Day 28, PPS, p=0.0005 vs baseline): −6.5 points
UPDRS Part 3 score (motor disability), change from baseline ([1]; Day 28, PPS): −3.7 points
UPDRS total score (Parts 1-4), change from baseline ([1]; Day 42, PPS, p=0.0021 vs baseline): −5.7 points
UPDRS Part 3 score (motor disability), change from baseline ([1]; Day 42, PPS): −3.7 points
UPDRS total score absolute change from baseline, NLX-112 vs placebo ([1]; Days 28 or 42): no significant differences
UPDRS Part 3 Motor Total, collected value, mean [1, 3]: 17.8
UPDRS Part 3 Motor Total, collected value, median [1, 3]: 16.0
UPDRS Total Score (all Parts), collected value, Mean [1, 3]: 38.3
UPDRS Total Score (all Parts), collected value, Median [1, 3]: 37.5
UPDRS Part 3 Motor Total, absolute change from baseline, mean [1, 4]: −3.7
UPDRS Part 3 Motor Total, absolute change from baseline, median [1, 4]: −4.0
UPDRS Part 3 Motor Total, collected value, mean [1, 4]: 13.9
UPDRS Part 3 Motor Total, collected value, median [1, 4]: 14.0
UPDRS Part 3 Motor Total, relative change from baseline (%), mean [1, 4]: −21.8%
UPDRS Part 3 Motor Total, relative change from baseline (%), median [1, 4]: −21.4%
UPDRS Total Score (all Parts), absolute change from baseline, Mean [1, 4]: −6.5
UPDRS Total Score (all Parts), absolute change from baseline, Median [1, 4]: −5.0
UPDRS Total Score (all Parts), collected value, Mean [1, 4]: 30.5
UPDRS Total Score (all Parts), collected value, Median [1, 4]: 29.0
UPDRS Total Score (all Parts), relative change from baseline (%), Mean [1, 4]: −17.4%
UPDRS Total Score (all Parts), relative change from baseline (%), Median [1, 4]: −15.2%
UPDRS Part 3 Motor Total, absolute change from baseline, mean [1, 5]: −3.7
UPDRS Part 3 Motor Total, absolute change from baseline, median [1, 5]: −4.0
UPDRS Part 3 Motor Total, collected value, mean [1, 5]: 13.9
UPDRS Part 3 Motor Total, collected value, median [1, 5]: 14.0
UPDRS Part 3 Motor Total, relative change from baseline (%), mean [1, 5]: −21.5%
UPDRS Part 3 Motor Total, relative change from baseline (%), median [1, 5]: −33.3%
UPDRS Total Score (all Parts), absolute change from baseline, Mean [1, 5]: −5.7
UPDRS Total Score (all Parts), absolute change from baseline, Median [1, 5]: −5.0
UPDRS Total Score (all Parts), collected value, Mean [1, 5]: 31.3
UPDRS Total Score (all Parts), collected value, Median [1, 5]: 30.0
UPDRS Total Score (all Parts), relative change from baseline (%), Mean [1, 5]: −15.7%
UPDRS Total Score (all Parts), relative change from baseline (%), Median [1, 5]: −19.2%
UPDRS Part 3 Motor Total, absolute change from baseline, mean [1, 6]: −2.7
UPDRS Part 3 Motor Total, absolute change from baseline, median [1, 6]: −2.0
UPDRS Part 3 Motor Total, collected value, mean [1, 6]: 14.8
UPDRS Part 3 Motor Total, collected value, median [1, 6]: 13.0
UPDRS Part 3 Motor Total, relative change from baseline (%), mean [1, 6]: −11.2%
UPDRS Part 3 Motor Total, relative change from baseline (%), median [1, 6]: −14.3%
UPDRS Total Score (all Parts), absolute change from baseline, Mean [1, 6]: −4.4
UPDRS Total Score (all Parts), absolute change from baseline, Median [1, 6]: −3.0
UPDRS Total Score (all Parts), collected value, Mean [1, 6]: 32.6
UPDRS Total Score (all Parts), collected value, Median [1, 6]: 31.0
UPDRS Total Score (all Parts), relative change from baseline (%), Mean [1, 6]: −9.57%
UPDRS Total Score (all Parts), relative change from baseline (%), Median [1, 6]: −11.5%
UPDRS Part 3 Motor Total, collected value, mean [1, 7]: 17.5
UPDRS Part 3 Motor Total, collected value, median [1, 7]: 17.0
UPDRS Total Score, collected value, mean [1, 7]: 37.0
UPDRS Total Score, collected value, median [1, 7]: 36.0
UPDRS Part 3 Motor Total, absolute change from baseline, mean [1, 8]: −3.7
UPDRS Part 3 Motor Total, absolute change from baseline, median [1, 8]: −4.0
UPDRS Part 3 Motor Total, collected value, mean [1, 8]: 13.9
UPDRS Part 3 Motor Total, collected value, median [1, 8]: 14.0
UPDRS Part 3 Motor Total, relative change from baseline (%), mean [1, 8]: −21.8%
UPDRS Part 3 Motor Total, relative change from baseline (%), median [1, 8]: −21.4%
UPDRS Total Score, absolute change from baseline, mean [1, 8]: −6.5
UPDRS Total Score, absolute change from baseline, median [1, 8]: −5.0
UPDRS Total Score, collected value, mean [1, 8]: 30.5
UPDRS Total Score, collected value, median [1, 8]: 29.0
UPDRS Total Score, relative change from baseline (%), mean [1, 8]: −17.4%
UPDRS Total Score, relative change from baseline (%), median [1, 8]: −15.2%
UPDRS Part 3 Motor Total, absolute change from baseline, mean [1, 9]: −3.7
UPDRS Part 3 Motor Total, absolute change from baseline, median [1, 9]: −4.0
UPDRS Part 3 Motor Total, collected value, mean [1, 9]: 13.9
UPDRS Part 3 Motor Total, collected value, median [1, 9]: 14.0
UPDRS Part 3 Motor Total, relative change from baseline (%), mean [1, 9]: −21.5%
UPDRS Part 3 Motor Total, relative change from baseline (%), median [1, 9]: −33.3%
UPDRS Total Score, absolute change from baseline, mean [1, 9]: −5.7
UPDRS Total Score, absolute change from baseline, median [1, 9]: −5.0
UPDRS Total Score, collected value, mean [1, 9]: 31.3
UPDRS Total Score, collected value, median [1, 9]: 30.0
UPDRS Total Score, relative change from baseline (%), mean [1, 9]: −15.7%
UPDRS Total Score, relative change from baseline (%), median [1, 9]: −19.2%
UPDRS Part 3 Motor Total, absolute change from baseline, mean [1, 10]: −2.7
UPDRS Part 3 Motor Total, absolute change from baseline, median [1, 10]: −2.0
UPDRS Part 3 Motor Total, collected value, mean [1, 10]: 14.8
UPDRS Part 3 Motor Total, collected value, median [1, 10]: 13.0
UPDRS Part 3 Motor Total, relative change from baseline (%), mean [1, 10]: −11.2%
UPDRS Part 3 Motor Total, relative change from baseline (%), median [1, 10]: −14.3%
UPDRS Total Score, absolute change from baseline, mean [1, 10]: −4.4
UPDRS Total Score, absolute change from baseline, median [1, 10]: −3.0
UPDRS Total Score, collected value, mean [1, 10]: 32.6
UPDRS Total Score, collected value, median [1, 10]: 31.0
UPDRS Total Score, relative change from baseline (%), mean [1, 10]: −9.57%
UPDRS Total Score, relative change from baseline (%), median [1, 10]: −11.5%
reduction in UPDRS Part 3 score, more than placebo ([1]; day 42): 3.9 points
UPDRS Part 1 (non-motor experiences of daily living), vs baseline ([1]; days 28 and 42): no statistically significant changes from baseline
UPDRS Part IV (motor complications), vs baseline ([1]; days 28 and 42): significant reduction
UPDRS Part 3, Δ from baseline [1, 11]: −9 and −13 and +3 and +2 and −4
UPDRS Total, Δ from baseline [1, 11]: −15 and −11 and −5 (2×) and +3
patients on NLX-112 and amantadine with numerical reductions in PD symptoms (UPDRS) ([1]; of the 5 patients): 4
UPDRS Part 1, mean [1, 12]: 1.0
UPDRS Part 2, mean [1, 12]: 10.7
UPDRS Part 3, mean [1, 12]: 17.5
UPDRS Part 4, mean [1, 12]: 8.0
UPDRS Total (Parts 1 to 4), mean [1, 12]: 37.0
UPDRS Part 1, mean change from baseline ([1]; per-protocol set, Δ D 28 (end of up-titration)): 0.2
UPDRS Total (Parts 1 to 4), mean change from baseline ([1]; per-protocol set, Δ D 28 (end of up-titration), p < 0.001 vs baseline): −6.5
UPDRS Part 3, mean change from baseline ([1]; per-protocol set, Δ D 28 (end of up-titration), p < 0.01 vs baseline, p < 0.05 vs placebo): −3.7
UPDRS Part 2, mean change from baseline [1, 13]: −2.1
UPDRS Part 4, mean change from baseline [1, 13]: −0.9
UPDRS Part 1, mean change from baseline [1, 14]: 0.1
UPDRS Part 2, mean change from baseline [1, 14]: −1.2
UPDRS Part 3, mean change from baseline [1, 15]: −3.7
UPDRS Total (Parts 1 to 4), mean change from baseline [1, 15]: −5.7
UPDRS Part 4, mean change from baseline ([1]; per-protocol set, Δ D 42 (end of stable dosing), p < 0.05 vs baseline): −0.9
rotation behavior (6-OH-DA lesioned rats): increases rotation behavior
